In ChEMBL document CHEMBL1201862, “PubChem BioAssay data set” (2004):
Calls of active or inactive are those of the source.

How the values were obtained:
[1] = target: Sphingosine 1-phosphate receptor 3 (Homo sapiens, UniProt Q99500); experiment: Dose response cell-based high throughput screening assay for antagonists of the Sphingosine 1-Phosphate Receptor 3 (S1P3). [Related pubchem assays: 1429, 485 ]; format: functional
[2] = NIH3T3 cell viability loss – ATP luminescence, mouse fibroblasts, counter-screen, dose response (AID 2010); format: functional, cell-based;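 further: cells exposed to compound for about 90 hours before reading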
[3] = target: 5-hydroxytryptamine receptor 1E (Homo sapiens, UniProt P28566); experiment: Counterscreen assay for S1P3 antagonists: Dose response cell-based high throughput screening assay to identify antagonists of the 5-Hydroxytryptamine Receptor Subtype 1E (5HT1E). [Related pubchem assays: 1429, 485 ]; format: functional
[4] = Trypanosoma cruzi growth suppression in host cells – NIH3T3 host cells, beta-gal luminescence, confirmation (AID 2044); format: functional, cell-based;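 further: intracellular parasites grown in NIH/3T3 mouse fibroblasts as host cells; luminescent beta-galactosidase reporter signal from transgenic T. cruzi replicating inside host cells; inhibitors lower the luminescence signal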
INS1 = experiment: INS-1E survival protection against cytokine death – cell-based, luminescence, retest, dose response (AID 449756); format: functional; conditions: Rattus norvegicus;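 further: cell death triggered by IL-1 beta plus TNF-alpha plus IFN-gamma mixture; protective hits raise ATP signal compared with cytokine alone wells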
[5] = blockers of bursicon-stimulated LGR2 cAMP reporter – cell-based, HEK293, CRE-luciferase reporter, cherry pick, set 2, dose response (AID 743343); format: functional;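 further: transfected cells were stimulated with diluted bursicon conditioned medium after compound addition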
[6] = Luminescence-based counterscreen assay for KLF5 inhibitors: dose response cell-based high throughput screening assay to identify cytotoxic compounds using the IEC-6 intestinal epithelial cell line. [Related pubchem assays: 1700 (Primary screen.), 1834 (Confirmation screen.), 1858 (Summary AID.), 1905 (Counterscreen.)]; format: functional
[7] = blockade of melanocortin 4 receptor signaling – cell-based, plate reader, cherry pick, counter-screen for LGR2 antagonist project, dose response (AID 743444); format: functional;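 further: transfected HEK 293 cells stimulated with alpha-MSH peptide; potency of inhibitors of the alpha-MSH evoked signal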
[8] = toxicity toward HepG2 liver cells – cell-based, plate reader, cherry-pick, antagonist series, cytotoxicity control, dose response (AID 743416); format: functional
[9] = A549 cell cytotoxicity, dose response, cytotoxicity control, plate reader, cherry-pick, antagonist series (AID 743412); format: functional, cell-based
[10] = viability loss in HEK293 cells – cell-based, plate reader, cherry-picked samples, cytotoxicity control, dose response (AID 743446); format: functional
Bcl-2-like protein 10 = Bcl-2-like protein 10 (Homo sapiens, UniProt Q9HD36); experiment: Concentration-response of Bcl-B inhibitors by biochemical FP with TR3 (AID 1243); format: functional
[11] = Luminescence Cell-Based Dose-Confimation HTS to Identify Inhibitors of 5'UTR Stem-Loop Driven Alpha-Synuclein mRNA Translation in H4 Neuroglioblastoma Cells. [Related pubchem assays: 1827 (Project Summary), 1813 (Primary HTS)]; format: functional
HEK293 [12] = experiment: NOD2 signaling inhibitors in MDP-stimulated cells, cell-based, uHTS, luminescence (AID 2001); format: functional; conditions: Homo sapiens
HEK293 [13] = experiment: cells; format: functional, cell-based; conditions: Homo sapiens
[14] = target: T1, Neuropeptide Y receptor type 2 (Homo sapiens, UniProt P49146); experiment: IC50 for human NPY-Y2 blockade – cell-based, counter-screen for NPY-Y1 antagonist project, dose response (AID 1278); format: functional
T1 sequence (P49146 whole entry): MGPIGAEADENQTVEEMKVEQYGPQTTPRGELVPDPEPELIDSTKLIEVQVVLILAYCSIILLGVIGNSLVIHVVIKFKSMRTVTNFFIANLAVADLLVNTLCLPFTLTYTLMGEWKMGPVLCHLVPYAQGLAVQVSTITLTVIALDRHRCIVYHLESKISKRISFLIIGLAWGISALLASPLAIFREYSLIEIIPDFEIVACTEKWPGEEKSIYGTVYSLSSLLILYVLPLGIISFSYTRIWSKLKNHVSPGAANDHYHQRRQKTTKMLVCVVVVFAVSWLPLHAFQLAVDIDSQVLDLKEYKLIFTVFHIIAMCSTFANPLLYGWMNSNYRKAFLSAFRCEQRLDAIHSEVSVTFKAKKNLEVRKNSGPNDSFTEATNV

HEK293 [15] = experiment: cells; format: functional, cell-based; conditions: Homo sapiens; remark: listed apart in the source
[16] = target: T2, Microphthalmia-associated transcription factor (Homo sapiens, UniProt O75030); experiment: reducers of TRPM1 reporter luminescence, concentration series – cell-based, SK-MEL-5, cherry-picked, set 3, MITF inhibitor project, dose response (AID 493073); format: functional;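 further: SK-MEL-5 melanoma cells with luciferase driven by the MITF target TRPM1 promoter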
T2 sequence (O75030 whole entry): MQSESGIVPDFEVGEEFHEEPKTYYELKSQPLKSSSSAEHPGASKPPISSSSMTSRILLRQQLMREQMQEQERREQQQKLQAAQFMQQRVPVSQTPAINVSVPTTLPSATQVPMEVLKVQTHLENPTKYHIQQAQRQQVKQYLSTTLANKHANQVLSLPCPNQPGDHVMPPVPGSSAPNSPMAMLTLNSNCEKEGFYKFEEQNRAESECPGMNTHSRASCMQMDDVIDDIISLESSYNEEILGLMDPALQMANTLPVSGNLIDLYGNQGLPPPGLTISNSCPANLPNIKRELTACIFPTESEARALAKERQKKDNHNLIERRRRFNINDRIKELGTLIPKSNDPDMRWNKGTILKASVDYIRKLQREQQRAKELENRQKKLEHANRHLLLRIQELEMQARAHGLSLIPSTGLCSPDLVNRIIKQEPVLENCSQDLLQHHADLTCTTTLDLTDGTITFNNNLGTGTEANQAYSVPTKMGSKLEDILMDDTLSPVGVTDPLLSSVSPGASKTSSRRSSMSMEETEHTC

HEK293 [17] = experiment: inhibition of NOD1-driven NF-kB reporter – cell-based, luminescence, uHTS, primary screen (AID 1578); format: functional; conditions: Homo sapiens
[18] = target: T3, Neuropeptide Y receptor type 1 (Homo sapiens, UniProt P25929); experiment: IC50 of human NPY-Y1 blockers – cell-based, dose response (AID 1277); format: functional
T3 sequence (P25929 whole entry): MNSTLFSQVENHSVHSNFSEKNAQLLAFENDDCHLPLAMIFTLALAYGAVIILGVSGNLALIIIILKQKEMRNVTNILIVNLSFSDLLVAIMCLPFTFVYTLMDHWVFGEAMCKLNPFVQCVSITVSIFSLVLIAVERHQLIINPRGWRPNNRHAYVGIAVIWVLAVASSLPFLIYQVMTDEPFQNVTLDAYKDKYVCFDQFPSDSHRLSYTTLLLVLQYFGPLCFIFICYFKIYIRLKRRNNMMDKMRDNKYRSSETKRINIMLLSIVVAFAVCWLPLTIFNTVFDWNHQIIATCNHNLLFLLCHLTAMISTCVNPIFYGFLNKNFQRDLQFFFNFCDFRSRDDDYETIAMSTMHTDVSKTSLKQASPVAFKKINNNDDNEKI

[19] = target: Sphingosine 1-phosphate receptor 2 (Homo sapiens, UniProt O95136); experiment: Dose Response Cell Based Assay for Agonists of the S1P2 Receptor of Purchased Analogues. [Related pubchem assays: 729, 843, 854, 736 ]; format: functional
[20] = target: 72 kDa type IV collagenase (Homo sapiens, UniProt P08253); experiment: Dose Response validation of uHTS RPN11 inhibitor hits using a MMP-2 Fluorescence assay.; format: functional
Prothrombin = Prothrombin (Bos taurus, UniProt P00735); experiment: thrombin protease inhibitors – biochemical, fluorescence polarization, uHTS hits, dose response (AID 602369); format: functional
[21] = target: 26S proteasome non-ATPase regulatory subunit 14 (Homo sapiens, UniProt O00487); experiment: inhibition of proteasome subunit RPN11 – biochemical, fluorescence polarization, uHTS hits, confirmation (AID 602368); format: functional
26S proteasome non-ATPase regulatory subunit 14, sequence (O00487 whole entry): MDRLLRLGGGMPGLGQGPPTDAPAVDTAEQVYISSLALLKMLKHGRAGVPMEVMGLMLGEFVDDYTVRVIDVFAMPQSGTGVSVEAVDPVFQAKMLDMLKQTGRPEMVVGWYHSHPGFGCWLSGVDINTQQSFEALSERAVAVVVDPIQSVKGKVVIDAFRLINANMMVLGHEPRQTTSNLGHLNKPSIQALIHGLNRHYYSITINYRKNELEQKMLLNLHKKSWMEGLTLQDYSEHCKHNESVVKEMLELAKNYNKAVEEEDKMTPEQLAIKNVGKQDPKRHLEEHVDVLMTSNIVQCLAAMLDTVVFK

[22] = target: T4, Voltage-gated N-type calcium channel alpha-1B subunit/Amyloid beta A4 precursor protein-binding family A member 1 (Homo sapiens, UniProt Q00975+Q02410); format: protein assay
T4 sequence (Q00975 whole entry, the tested form may be a part): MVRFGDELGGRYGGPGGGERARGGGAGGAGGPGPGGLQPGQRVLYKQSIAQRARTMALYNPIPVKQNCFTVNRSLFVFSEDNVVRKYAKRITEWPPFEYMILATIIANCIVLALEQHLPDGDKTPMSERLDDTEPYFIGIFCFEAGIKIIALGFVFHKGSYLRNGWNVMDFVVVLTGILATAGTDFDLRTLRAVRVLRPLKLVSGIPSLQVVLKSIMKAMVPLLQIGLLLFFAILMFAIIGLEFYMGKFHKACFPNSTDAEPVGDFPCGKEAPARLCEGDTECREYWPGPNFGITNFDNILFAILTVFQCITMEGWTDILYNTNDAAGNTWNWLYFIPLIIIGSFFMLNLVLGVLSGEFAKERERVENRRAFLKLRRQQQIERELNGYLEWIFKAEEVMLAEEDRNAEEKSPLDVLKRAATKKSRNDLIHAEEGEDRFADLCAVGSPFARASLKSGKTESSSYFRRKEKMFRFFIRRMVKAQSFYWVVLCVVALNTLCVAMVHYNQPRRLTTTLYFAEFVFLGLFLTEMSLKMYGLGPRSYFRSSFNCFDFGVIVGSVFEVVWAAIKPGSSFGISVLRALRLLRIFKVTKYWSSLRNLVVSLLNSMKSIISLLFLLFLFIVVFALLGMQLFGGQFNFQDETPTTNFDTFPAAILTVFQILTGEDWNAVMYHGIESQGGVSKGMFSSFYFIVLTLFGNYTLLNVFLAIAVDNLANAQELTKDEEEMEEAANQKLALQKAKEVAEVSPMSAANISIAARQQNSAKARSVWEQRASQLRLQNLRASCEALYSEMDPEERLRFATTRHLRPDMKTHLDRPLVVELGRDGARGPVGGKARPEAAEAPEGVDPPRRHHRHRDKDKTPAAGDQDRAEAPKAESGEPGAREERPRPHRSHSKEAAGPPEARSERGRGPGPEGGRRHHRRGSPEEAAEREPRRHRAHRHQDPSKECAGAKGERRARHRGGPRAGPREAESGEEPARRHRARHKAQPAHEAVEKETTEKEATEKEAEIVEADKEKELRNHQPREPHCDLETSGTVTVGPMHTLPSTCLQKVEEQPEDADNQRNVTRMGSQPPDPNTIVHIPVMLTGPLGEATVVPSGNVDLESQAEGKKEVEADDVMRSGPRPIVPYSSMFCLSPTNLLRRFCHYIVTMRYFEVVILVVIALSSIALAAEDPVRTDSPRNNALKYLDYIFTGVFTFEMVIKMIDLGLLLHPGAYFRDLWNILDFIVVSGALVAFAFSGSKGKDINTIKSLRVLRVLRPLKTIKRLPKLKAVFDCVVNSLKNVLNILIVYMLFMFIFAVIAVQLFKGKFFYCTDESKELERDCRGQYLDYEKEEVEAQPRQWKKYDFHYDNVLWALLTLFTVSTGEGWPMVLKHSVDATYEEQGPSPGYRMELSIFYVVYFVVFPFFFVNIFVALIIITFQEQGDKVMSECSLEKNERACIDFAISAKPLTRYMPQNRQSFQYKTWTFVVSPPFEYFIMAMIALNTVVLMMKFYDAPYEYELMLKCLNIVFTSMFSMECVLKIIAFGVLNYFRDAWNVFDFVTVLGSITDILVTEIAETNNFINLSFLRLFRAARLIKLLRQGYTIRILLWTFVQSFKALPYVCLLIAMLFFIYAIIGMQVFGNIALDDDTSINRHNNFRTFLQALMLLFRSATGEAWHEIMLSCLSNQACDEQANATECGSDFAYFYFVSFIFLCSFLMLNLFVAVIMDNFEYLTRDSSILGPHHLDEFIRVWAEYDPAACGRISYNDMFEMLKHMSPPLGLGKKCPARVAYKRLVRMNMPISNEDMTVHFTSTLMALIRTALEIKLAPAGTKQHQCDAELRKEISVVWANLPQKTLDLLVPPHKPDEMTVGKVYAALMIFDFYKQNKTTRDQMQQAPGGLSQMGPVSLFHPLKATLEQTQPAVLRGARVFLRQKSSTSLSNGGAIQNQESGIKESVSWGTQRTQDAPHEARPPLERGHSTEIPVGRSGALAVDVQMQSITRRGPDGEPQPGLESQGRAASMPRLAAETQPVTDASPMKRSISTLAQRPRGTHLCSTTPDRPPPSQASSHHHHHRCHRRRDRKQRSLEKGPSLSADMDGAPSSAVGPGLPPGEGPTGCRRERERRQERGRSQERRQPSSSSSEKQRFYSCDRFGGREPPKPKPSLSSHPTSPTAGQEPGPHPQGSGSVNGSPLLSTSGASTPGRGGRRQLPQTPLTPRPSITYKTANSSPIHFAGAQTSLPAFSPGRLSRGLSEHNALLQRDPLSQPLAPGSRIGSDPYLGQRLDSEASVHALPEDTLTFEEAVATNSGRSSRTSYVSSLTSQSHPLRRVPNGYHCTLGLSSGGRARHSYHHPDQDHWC
T4 sequence (Q02410 whole entry, the tested form may be a part): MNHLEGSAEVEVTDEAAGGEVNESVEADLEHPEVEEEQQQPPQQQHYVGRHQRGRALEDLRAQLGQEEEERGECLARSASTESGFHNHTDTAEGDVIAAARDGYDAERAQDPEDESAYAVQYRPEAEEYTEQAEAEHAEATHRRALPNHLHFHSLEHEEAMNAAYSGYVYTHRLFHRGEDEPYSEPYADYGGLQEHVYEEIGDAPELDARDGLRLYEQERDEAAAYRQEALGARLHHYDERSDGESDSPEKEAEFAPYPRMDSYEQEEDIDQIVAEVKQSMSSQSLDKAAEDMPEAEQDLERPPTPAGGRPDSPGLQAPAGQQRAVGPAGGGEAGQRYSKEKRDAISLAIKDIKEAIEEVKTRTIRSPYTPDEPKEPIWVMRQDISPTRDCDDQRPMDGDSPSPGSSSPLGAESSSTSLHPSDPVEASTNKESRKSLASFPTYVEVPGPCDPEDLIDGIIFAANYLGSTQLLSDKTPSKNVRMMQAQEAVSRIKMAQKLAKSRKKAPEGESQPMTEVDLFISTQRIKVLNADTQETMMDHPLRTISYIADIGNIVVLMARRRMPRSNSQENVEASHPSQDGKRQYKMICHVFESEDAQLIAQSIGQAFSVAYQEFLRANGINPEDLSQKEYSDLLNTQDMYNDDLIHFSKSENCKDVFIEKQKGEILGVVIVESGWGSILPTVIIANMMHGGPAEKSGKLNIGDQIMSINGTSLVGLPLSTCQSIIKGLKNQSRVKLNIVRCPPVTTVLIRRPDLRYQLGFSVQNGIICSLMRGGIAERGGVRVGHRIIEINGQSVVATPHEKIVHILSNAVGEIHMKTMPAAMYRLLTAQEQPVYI

[23] = target: T5, Carboxy-terminal domain RNA polymerase II polypeptide A small phosphatase 1 (Homo sapiens, UniProt Q9GZU7); experiment: CTDSP1 inhibitors, concentration-response, biochemical, absorbance readout, ultra-high-throughput screen actives (AID 540297); format: functional
T5 sequence (Q9GZU7 whole entry): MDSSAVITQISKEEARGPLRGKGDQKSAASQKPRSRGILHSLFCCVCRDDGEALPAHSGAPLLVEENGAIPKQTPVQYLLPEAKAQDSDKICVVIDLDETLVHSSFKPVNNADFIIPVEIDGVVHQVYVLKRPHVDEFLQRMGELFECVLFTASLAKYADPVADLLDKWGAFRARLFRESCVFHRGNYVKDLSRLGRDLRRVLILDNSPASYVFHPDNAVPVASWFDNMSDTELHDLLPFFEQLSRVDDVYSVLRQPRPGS

[24] = A High Throughput Confirmatory Assay used to Identify Novel Compounds that Inhibit Mycobacterium Tuberculosis in the absence of Glycerol.; format: functional
[25] = target: T6, Heat shock factor protein 1 (Mus musculus, UniProt P38532); experiment: decrease of HSF1-responsive luciferase luminescence – cell-based, NIH3T3, dose retest, confirmation (AID 2382); format: functional;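 further: NIH3T3 fibroblasts with HSF1-driven luciferase reporter stressed by proteasome inhibitor MG132; luminescence from HSF1-driven luciferase expression after 8 hours of MG132 stress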
T6 sequence (P38532 whole entry): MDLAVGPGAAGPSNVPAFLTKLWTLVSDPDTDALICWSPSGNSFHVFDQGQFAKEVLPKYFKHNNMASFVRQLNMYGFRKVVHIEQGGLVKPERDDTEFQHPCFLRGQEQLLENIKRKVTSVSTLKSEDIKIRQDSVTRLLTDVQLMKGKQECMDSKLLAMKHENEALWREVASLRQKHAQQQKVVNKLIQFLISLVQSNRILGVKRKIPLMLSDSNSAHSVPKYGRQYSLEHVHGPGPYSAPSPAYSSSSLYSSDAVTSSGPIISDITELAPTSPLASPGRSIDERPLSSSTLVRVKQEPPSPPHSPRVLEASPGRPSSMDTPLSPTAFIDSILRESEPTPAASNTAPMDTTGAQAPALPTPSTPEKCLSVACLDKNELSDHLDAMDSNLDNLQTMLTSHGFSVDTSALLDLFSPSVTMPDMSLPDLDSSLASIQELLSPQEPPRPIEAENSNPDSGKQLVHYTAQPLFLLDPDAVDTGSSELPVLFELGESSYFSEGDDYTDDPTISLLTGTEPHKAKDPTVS

[26] = target: T4, Voltage-gated N-type calcium channel alpha-1B subunit/Amyloid beta A4 precursor protein-binding family A member 1; format: protein assay; remark: listed apart in the source
[27] = target: T3, Neuropeptide Y receptor type 1; format: functional
[28] = target: T1, Neuropeptide Y receptor type 2; format: functional, cell-based
Estrogen receptor beta [29] = target: T7, Estrogen receptor beta (Homo sapiens, UniProt Q92731); experiment: blockers of SRC-3 recruitment to ERβ – biochemical, ELISA, streptavidin-HRP readout, orthogonal assay, confirmation (AID 1060)
T7 sequence (Q92731 whole entry): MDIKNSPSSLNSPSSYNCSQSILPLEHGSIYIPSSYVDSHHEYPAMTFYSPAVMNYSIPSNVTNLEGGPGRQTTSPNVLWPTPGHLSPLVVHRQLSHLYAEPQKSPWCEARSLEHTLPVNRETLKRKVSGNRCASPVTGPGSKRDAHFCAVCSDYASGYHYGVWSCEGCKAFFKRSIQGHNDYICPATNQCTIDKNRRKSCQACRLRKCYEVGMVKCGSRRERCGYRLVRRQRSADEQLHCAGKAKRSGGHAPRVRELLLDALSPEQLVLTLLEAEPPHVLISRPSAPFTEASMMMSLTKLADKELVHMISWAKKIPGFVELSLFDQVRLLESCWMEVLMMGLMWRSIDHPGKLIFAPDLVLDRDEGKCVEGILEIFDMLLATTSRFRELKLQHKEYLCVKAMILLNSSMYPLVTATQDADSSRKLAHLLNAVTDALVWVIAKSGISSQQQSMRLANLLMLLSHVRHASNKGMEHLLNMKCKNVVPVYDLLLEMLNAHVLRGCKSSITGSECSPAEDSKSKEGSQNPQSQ

Estrogen receptor beta [30] = target: T7, Estrogen receptor beta
[31] = mitochondrial function rescue without frataxin homolog – Friedreich's ataxia, plus single-dose screen, dose response (AID 1465); format: functional;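 further: yeast depleted of Yfh1p frataxin homolog grown on glycerol needing respiration; WST-1 tetrazolium dye reduction as measure of cellular dehydrogenase metabolic activity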
[32] = Luminescence Cell-Based Dose Response HTS to Identify Inhibitors of 5'UTR Stem-Loop Driven Prion Protein mRNA Translation in H4 Neuroglioblastoma Cells. [Related pubchem assays: 1827 (Project Summary), 1813 (Primary HTS)]; format: functional
[33] = alpha-synuclein stem-loop luciferase translation blockers – H4 neuroglioma cells, luminescence, confirmation (AID 1988); format: functional, cell-based
[34] = luciferase reporter signal suppression in cells – H4 neuroglioma cells, luminescence, dose response (AID 1990); format: functional, cell-based
[35] = viability loss of HPDE-C7K cells – cell-based, fluorescence, HTS, primary screen (AID 431); format: functional; conditions: Homo sapiens
cells [36] = format: functional, cell-based
Nonstructural protein 1 = Nonstructural protein 1 (Influenza A virus, UniProt Q194T2); format: functional, Influenza A virus (A/California/07/2009(H1N1))
Nonstructural protein 1, sequence (Q194T2 whole entry): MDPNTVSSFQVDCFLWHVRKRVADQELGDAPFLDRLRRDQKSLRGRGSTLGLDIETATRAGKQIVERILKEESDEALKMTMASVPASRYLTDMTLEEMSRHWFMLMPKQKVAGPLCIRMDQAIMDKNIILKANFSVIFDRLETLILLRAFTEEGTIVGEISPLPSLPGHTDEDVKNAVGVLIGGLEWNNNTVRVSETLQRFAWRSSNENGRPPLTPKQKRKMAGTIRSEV

[37] = target: Scavenger receptor class B member 1 (Mus musculus, UniProt Q61009); experiment: mouse SR-BI DiI-HDL uptake blockers – ldlA[mSR-BI] cells, fluorescence, cherry pick, dose response (AID 493194); format: functional, cell-based;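 further: cellular uptake of fluorescent DiI-labeled HDL measured as cell fluorescence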
[38] = HPDE-C7 pancreatic duct cell viability loss – fluorescence, HTS (AID 430); format: functional, cell-based; conditions: Homo sapiens
[39] = bead-based luminescence quenchers, dual-tagged ARNT – biochemical, AlphaScreen, cherry-pick, artefact control for ARNT-TACC3 interaction inhibitor project, dose response (AID 651705); format: functional;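 further: AlphaScreen bead proximity signal that flags compounds interfering with the detection technology; potency reflects signal decrease which marks the compound as an assay artifact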
cells [40] = format: functional, cell-based; remark: listed apart in the source
Vero = experiment: Vero cell viability after compound exposure – synthesized analogs, set II, cytotoxicity control for West Nile virus antiviral project, SAR follow-up (AID 2402); format: functional; conditions: Chlorocebus sabaeus
[41] = A Cell Based Assay for the Identification of Probe candidate Compounds with Anti- Venezuelan Equine Encephalitis virus. [Related pubchem assays: 2409, 2419, 1621, 2238, 2405, 2024, 2065, 2402, 2414, 1635, 1650, 2244 ]; format: functional

O=C(Nc1ccc(OC(F)F)c(Cl)c1)C(c1ccccc1)c1ccccc1
IC50 [1]: 4.07 µM (active) | EC50 [2]: > 60 µM (inconclusive) | IC50 [3]: 1.25 µM (active) | EC50 [4]: 1.29 µM (active) | AC50 (INS1): 8.95 µM (active)

Cc1ccc(C(=O)Nc2nc3ccccc3[nH]2)cc1
AC50 [5]: 1.29 µM (active) | IC50 [6]: > 13.3 µM (not active) | AC50 [7]: 1.45 µM (active) | AC50 [8]: > 52 µM (inactive) | AC50 [9]: 35.2 µM (active) | AC50 [10]: 29.2 µM (active)

Cc1c(Cl)ccc2c1NC(C(=O)O)C1CC=CC21 (centres undefined)
EC50 (Bcl-2-like protein 10): 5.21 µM (active)

CC(C)c1ccc(-n2nnnc2SCc2nc(N)nc(N)n2)cc1
EC50 [11]: > 100 µM (not active)

CC1CC(C)CN(C2=CC(=[N+]3CCCC3)CC(C)(C)C2)C1 (centres undefined)
IC50 (HEK293 [12]): 12.3 µM (inactive) | IC50 (HEK293 [13]): 7.24 µM (active) | IC50 [14]: > 35 µM (not active) | IC50 (HEK293 [15]): > 20 µM (inactive) | AC50 [16]: 2.24 µM (active) | EC50 [2]: > 60 µM (not active) | EC50 (HEK293 [17]): 2.22 µM (active) | EC50 [4]: 0.159 µM (active) | IC50 [18]: 15.1 µM (not active)

Cc1cc(C(=O)COC(=O)CCS(=O)(=O)c2ccccc2)c(C)n1Cc1ccccc1
EC50 [19]: > 30 µM (not active)

CC(=O)Oc1ccc(/C=N\NC(=O)c2cc3c(ccc4ccccc43)o2)cc1
IC50 [20]: 30 µM (active) | IC50 (Prothrombin): 75.6 µM (active) | IC50 [21]: 10.9 µM (active) | IC50 [22]: > 50 µM (inactive) | IC50 [23]: 4.3 µM (active) | IC50 [24]: > 100 µM (active) | EC50 [25]: > 195 µM (not active) | IC50 [26]: 4.06 µM (active)

CCOc1ccc(Oc2c(/C=N/NC(C)=O)c(C)nn2-c2ccccc2)cc1
IC50 [27]: 8.9 µM (active) | IC50 [28]: 4.53 µM (active)

CN1C(=O)CC(C(=O)O)S/C1=N/c1cc(Cl)c(O)c(Cl)c1 (centres undefined)
IC50 (Estrogen receptor beta [29]): > 109 µM (not active) | IC50 (Estrogen receptor beta [30]): 26.9 µM (active)

O=C(Nc1nc(NC(=O)c2ccco2)n(-c2ccccc2)n1)c1ccccc1
EC50 [31]: > 100 µM (active) | EC50 [32]: 5.2 µM (active) | EC50 [33]: 7.85 µM (active) | EC50 [34]: 10 µM (active) | EC50 [35]: 6.1 µM (active) | EC50 (cells [36]): > 350 µM (not active) | IC50 (Nonstructural protein 1): 85.9 µM (active) | AC50 (INS1): 2.96 µM (active) | AC50 [37]: 13.4 µM (active) | EC50 [38]: 3.73 µM (active) | AC50 [39]: 127 µM (active) | EC50 (cells [40]): > 350 µM (not active)

COc1ccc(Cn2nc(C)cc2OC(=O)c2c(F)cccc2F)cc1
CC50 (Vero): > 200 µM (active) | IC50 [41]: > 133 µM (active)
